From PMC314469, “Protein Interaction Networks by Proteome Peptide Scanning” (PLoS Biology, 2004)

Tested on: Myo5 SH3 domain
Assay: SPOT analysis of cellulose-bound peptides (WISE), Myo5 SH3 domain (Dataset S4)
Type: binding, Saccharomyces cerevisiae
Conditions: for The normalized value in BLU units: Myo5 SH3 domain
[1] = SPOT analysis of cellulose-bound peptides probed with Myo5 SH3 domain, normalized value
[2] = SPOT analysis of cellulose-bound 14-mer yeast proteome peptides, normalized value, mean where the peptide was synthesized more than once
[3] = SPOT analysis of membrane-bound peptides, normalized value (see methods)
[4] = SPOT analysis of membrane-synthesized peptides probed with Myo5 SH3 domain, normalized value

## NAIEMALPNDPYPA
[1]
  The normalized value in BLU units (SPOT analysis, Myo5 SH3): 87.2 BLU

## NALGLDPPPSPEDP
[1]
  The normalized value in BLU units (SPOT analysis, Myo5 SH3): 240.8 BLU

## NALKLIHPFMPFIS
[2]
  The normalized value in BLU units: 170.3 BLU

## NAPERAVPILPPRN
[2]
  The normalized value in BLU units: 740.9 BLU

## NAPPRIFPKAPIYG
[3]
  The normalized value in BLU units: 168.1 BLU

## NAQLRKTPLEPGLE
[2]
  The normalized value in BLU units: 175.9 BLU

## NASAMPAPYMPYYY
[1]
  The normalized value in BLU units (SPOT analysis, Myo5 SH3): 225.5 BLU

## NASLLRDPSAPYAH
[1]
  The normalized value in BLU units (SPOT analysis, Myo5 SH3): 133.8 BLU

## NDDKKTEPDKPAFS
[3]
  The normalized value in BLU units: 140.5 BLU

## NDLVKRFPEQPPLR
[3]
  The normalized value in BLU units: 21447.2 BLU

## NDMAKPLPTPPTAE
[4]
  The normalized value in BLU units (SPOT analysis, Myo5 SH3): 113.6 BLU

## NDNEKKKPSSPTAA
[4]
  The normalized value in BLU units (SPOT analysis, Myo5 SH3): 98.5 BLU

## NEAPMLSPQRPYST
[2]
  The normalized value in BLU units: 111.3 BLU

## NEDTFLPPPPPPPS
[1]
  The normalized value in BLU units (SPOT analysis, Myo5 SH3): 20439.9 BLU

## NEFAKFAPDLPVLK
[3]
  The normalized value in BLU units: 135.1 BLU

## NEFLHFDPHIPQPA
[1]
  The normalized value in BLU units (SPOT analysis, Myo5 SH3): 156.4 BLU

## NEGDLYPPEQPGVD
[1]
  The normalized value in BLU units (SPOT analysis, Myo5 SH3): 80.1 BLU

## NEHGMNAPSVPEFI
[2]
  The normalized value in BLU units: 344.1 BLU

## NEIELLRPRSPVQK
[1]
  The normalized value in BLU units (SPOT analysis, Myo5 SH3): 125.6 BLU

## NEKLHETPHLPSPV
[1]
  The normalized value in BLU units (SPOT analysis, Myo5 SH3): 109.3 BLU

## NELIKQGPKRPTSA
[4]
  The normalized value in BLU units (SPOT analysis, Myo5 SH3): 175.5 BLU

## NELVKRFPGHPPLR
[3]
  The normalized value in BLU units: 300.5 BLU

## NESEKSSPWSPYKV
[3]
  The normalized value in BLU units: 221.5 BLU

## NETKLKFPTLPEVP
[2]
  The normalized value in BLU units: 254.7 BLU

## NFLKHYLPSSPGDI
[1]
  The normalized value in BLU units (SPOT analysis, Myo5 SH3): 172.3 BLU

## NFPQRMMPPPPGLV
[4]
  The normalized value in BLU units (SPOT analysis, Myo5 SH3): 617.7 BLU

## NFPSLIDPHVPTYG
[2]
  The normalized value in BLU units: 97.4 BLU

## NGKDKSRPPRPPPK
[3]
  The normalized value in BLU units: 2621.2 BLU

## NGMPRRIPDYPDAF
[4]
  The normalized value in BLU units (SPOT analysis, Myo5 SH3): 223.3 BLU

## NGTWKYNPTVPNEL
[3]
  The normalized value in BLU units: 172.6 BLU

## NIFQKQLPKMPKEY
[4]
  The normalized value in BLU units (SPOT analysis, Myo5 SH3): 276.2 BLU

## NIPTKSPPKSPKHK
[4]
  The normalized value in BLU units (SPOT analysis, Myo5 SH3): 12462.9 BLU

## NITEKSPPKSPKHK
[3]
  The normalized value in BLU units: 292.3 BLU

## NKIPKHLPADPIFS
[2]
  The normalized value in BLU units: 277.9 BLU

## NKPKRKRPAPPKKK
[4]
  The normalized value in BLU units (SPOT analysis, Myo5 SH3): 872.0 BLU

## NLAPFTQPDFPFQT
[2]
  The normalized value in BLU units: 81.4 BLU

## NLHGYGHPNPPNEK
[2]
  The normalized value in BLU units: 216.6 BLU

## NLKTKSHPEVPRLD
[4]
  The normalized value in BLU units (SPOT analysis, Myo5 SH3): 362.8 BLU

## NLLSLENPVVPSHY
[1]
  The normalized value in BLU units (SPOT analysis, Myo5 SH3): 75.6 BLU

## NLSLRYAPNLPPVI
[4]
  The normalized value in BLU units (SPOT analysis, Myo5 SH3): 778.6 BLU

## NLYQRTTPAGPDPS
[2]
  The normalized value in BLU units: 114.4 BLU

## NNLKKRPPTAPQRK
[3]
  The normalized value in BLU units: 418.9 BLU

## NNSTRPIPAIPMDL
[4]
  The normalized value in BLU units (SPOT analysis, Myo5 SH3): 247.2 BLU

## NPFPFPIPEIPSTQ
[2]
  The normalized value in BLU units: 86.5 BLU

## NPFVRINPNRPEAA
[4]
  The normalized value in BLU units (SPOT analysis, Myo5 SH3): 275.9 BLU

## NPGSMSMPGVPTSM
[1]
  The normalized value in BLU units (SPOT analysis, Myo5 SH3): 189.7 BLU

## NPIPKSVPLHPKSG
[3]
  The normalized value in BLU units: 363.8 BLU

## NPLYWLLPSHPYTI
[1]
  The normalized value in BLU units (SPOT analysis, Myo5 SH3): 165.0 BLU

## NPMQKPVPFVPVLD
[4]
  The normalized value in BLU units (SPOT analysis, Myo5 SH3): 420.2 BLU

## NPQSLARPPPPKRI
[2]
  The normalized value in BLU units: 247.6 BLU

## NQIARQIPFQPWYL
[3]
  The normalized value in BLU units: 247.7 BLU

## NQIARQIPYQPWYL
[4]
  The normalized value in BLU units (SPOT analysis, Myo5 SH3): 163.5 BLU

## NRANKYDPKGPIYN
[3]
  The normalized value in BLU units: 205.0 BLU

## NRKQRSIPLSPIVP
[3]
  The normalized value in BLU units: 490.7 BLU

## NSFRKILPQEPEIW
[3]
  The normalized value in BLU units: 235.4 BLU

## NSFSKNDPNFPILK
[3]
  The normalized value in BLU units: 160.5 BLU

## NSGEKIYPQEPPIS
[2]
  The normalized value in BLU units: 111.7 BLU

## NSNVRIPPTVPSKI
[3]
  The normalized value in BLU units: 423.1 BLU

## NSTVRRKPHSPNKK
[4]
  The normalized value in BLU units (SPOT analysis, Myo5 SH3): 955.5 BLU

## NSVIRGCPGLPDTL
[4]
  The normalized value in BLU units (SPOT analysis, Myo5 SH3): 150.8 BLU

## NTIIKFDPGRPIYN
[3]
  The normalized value in BLU units: 271.8 BLU

## NTIIKLFPYIPIPV
[3]
  The normalized value in BLU units: 203.7 BLU

## NTINKSNPQGPSDN
[4]
  The normalized value in BLU units (SPOT analysis, Myo5 SH3): 76.2 BLU

## NTLLKVVPQEPTAV
[4]
  The normalized value in BLU units (SPOT analysis, Myo5 SH3): 154.4 BLU

## NTVEKLQPGLPVII
[3]
  The normalized value in BLU units: 279.7 BLU

## NVLLKAKPNDPAAT
[3]
  The normalized value in BLU units: 155.5 BLU

## NYHHRETPPPPPSN
[4]
  The normalized value in BLU units (SPOT analysis, Myo5 SH3): 317.8 BLU

## PANPKILPKIPSGA
[4]
  The normalized value in BLU units (SPOT analysis, Myo5 SH3): 164.4 BLU

## PAPPPPPPPPPPP
[1]
  The normalized value in BLU units (SPOT analysis, Myo5 SH3): 53285 BLU

## PCKKKSKPKVPAKN
[3]
  The normalized value in BLU units: 579.8 BLU

## PDLNKRPPREPIEF
[4]
  The normalized value in BLU units (SPOT analysis, Myo5 SH3): 192.4 BLU
